The subject of assay [1] is human primary breast tumor cells. The experiment in a line: Apoptosis by PI staining (subG0/G1 cells). The following applies: 50 μg/ml Poly IC, 48 h; PBS 19.5%. The class given is cell-based. The source says:
Human primary breast tumor sample was obtained from the Centre Léon Bérard (Lyon, France) in agreement with the Hospital bioethical protocols. A single cell suspension was obtained after digestion with Collagenase A (Sigma-Aldrich) and washes and enrichment in Human Epithelial Antigen (HEA) positive cells using HEA-microbeads (Mylteni Biotech, Bergisch Gladbach, Germany) according to manufacturer's instructions. The final single cell suspension contained more than 80% HEA positive cells and less than 2% CD4^+ hematopoietic contaminants.
Cell recovery after treatment with TLR ligands was measured by crystal violet staining (Sigma-Aldrich). Cells were plated at 10^4 cells/well in 96 well plates. […] Sub-diploid cells were detected by staining with 3 μg/mL propidium iodide (PI) (Molecular probes, Eugene, Oreg.), after overnight permeabilization in 70% ethanol. Fluorescence was analyzed by flow cytometry on a FACScalibur (Becton Dickinson, Mountain View, Calif.) equipped with a doublet-discrimination module and using Celiquest Pro software (Becton Dickinson).
We then tried to determine the effect that Poly IC has on human primary breast tumor cells. […] Apoptosis was measured by PI staining. […]

In assay [2] the test system is colon cancer cell line LS174T. The experiment in a line: BrdU incorporation and propidium iodide DNA content by FACS. It is filed as cell-based. As for the experimental part:
Two cell lines, the colon cancer cell line LS174T and the breast cancer cell line Cama-1, were analyzed for death and cell cycle changes. Cells were cultured for 48 hours in either the presence or absence of Poly IC (5 μg/ml). Following a 30-minute pulse with 1 μg/ml bromodeoxyuridine (BrdU), the cells were fixed overnight at 4° C. in 70% ethanol before staining with FITC-coupled anti-BrdU monoclonal antibody and 3 μg/ml propidium iodide. Cell death and the cell cycle were analyzed by flow cytometry (FACS). BrdU incorporation is a measure of proliferation, whereas propidium iodide staining allows the quantification of DNA content, in particular the subdiploid cell population undergoing apoptosis.

Assay [3] concerns Cama-1, SW527, BT483 and MCF-7. The experiment in a line: Cell recovery by crystal violet staining, four breast tumor cell lines together. The class given is cell-based, human. The following applies: 72 h; 5 μg/ml PGN, 50 μg/ml Poly IC or 10 μg/ml LPS; average of the four cell lines. How it is done: Cell recovery after treatment with TLR ligands was measured by crystal violet staining (Sigma-Aldrich). Cells were plated at 10^4 cells/well in 96 well plates. After 72 hours of culture either with or without TLR ligand, the cells were washed with PBS, fixed in 6% formaldehyde (Sigma-Aldrich) for 20 minutes, washed twice, and then stained with 0.1% crystal violet for 10 minutes. After washes and incubation in 1% SDS for 1 hour, the absorbance was read at 605 nm on a Vmax plate reader (Molecular Devices, Sunnyvale, Calif.). Annexin V staining was performed with an annexin-FITC apoptosis detection kit (BD Pharmingen, San Diego, Calif.) according to the manufacturer's instructions. Sub-diploid cells were detected by staining with 3 μg/mL propidium iodide (PI) (Molecular probes, Eugene, Oreg.), after overnight permeabilization in 70% ethanol. Fluorescence was analyzed by flow cytometry on a FACScalibur (Becton Dickinson, Mountain View, Calif.) equipped with a doublet-discrimination module and using Celiquest Pro software (Becton Dickinson).
Four human breast tumor cell lines, Cama-1, SW527, BT483 and MCF-7, were analyzed for cell death in response to Poly IC. Cells were cultured for 72 hours with 5 μg/ml PGN, 50 μg/ml Poly IC or 10 μg/ml LPS. Control cells were cultured with PBS. Cytotoxicity was assessed by crystal violet staining and expressed as a percent of control.
Furthermore, additional TLR ligands were tested to determine any possible effects on cellular toxicity. The ligands tested were PGN, LPS, Flagellin, R848 and CpG. Cells were cultured for 72 hours with 5 μg/ml PGN, 10 μg/ml LPS, 50 ng/ml flagellin, 6 μg/ml R848, 10 μg/ml CpG ODNs, or with PBS as control. Cell recovery was assessed by crystal violet staining and expressed as a percent of control.

The next assay concerns SKBr3 cells. The experiment in a line: Apoptosis analysis of SKBr3 cells. The class given is cell-based. The following applies: for percentage of SKBr3 cells induced to apoptosis by Poly IC: summary statement. How it is done:
We tried to further investigate whether any synergy exists between TLR3 ligands and type I IFN. The primary breast carcinoma cells SKBr3 were plated in 6 well plates at 3×10^5 cells per well. After overnight adherence, siRNA transfections were performed for 5 hours in OptiMEM medium (Life technologies) containing 3μg/mL lipofectamine 2000 (Invivogen) and 100 nM siRNA. Cells were transfected with either MOCK (water), TLR3 siRNA or PKR siRNA. Cells were then washed and cultured for 72 hours in complete medium before 24 hour treatment with 50 μg/ml Poly IC and apoptosis analysis.
In another experiment, we tried to determine whether IFN and Poly IC acted synergistically to induce apoptosis. SKBr3 cells were untreated or pre-treated with either 10 U/ml or 100 U/ml of a low dose mixture of IFN-α or IFN-β. Poly IC was administered in the following doses: 0, 0.5, 5 and 50 μg/ml for 48 hours.

Another assay has as its system PARP. Description: Western Blot for cleavage of PARP in Cama-1 cells. The class given is cell-based, human. The following applies: Poly IC treatment. How it is done: Cama-1 cells were lysed in 1% Nonidet-P40-containing buffer. 20 μg total protein was loaded per lane on SDS-Polyacrylamide gels (Invitrogen). Western Blots (WB) were performed with standard techniques using the antibodies described above. Anti IRAK-4 monoclonal antibodies were generated in the laboratory according to the protocol described in Fossiez et al., “T cell interleukin-17 induces stromal cells to produce proinflammatory and hematopoietic cytokines”, J. Exp. Med., vol. 183(6), pp. 2593-2603 (1996).
We next addressed the role of caspases in apoptosis. Cama-1 cells were pre-incubated with 25 μM of the general caspase inhibitor z-VAD-fmk or DMSO for 1 hour before culture for 24 hours with or without 5 μg/ml Poly IC or 25 ng/ml TNF-α (used as a positive control). Apoptosis was measured by annexin V staining and expressed as a percentage of apoptotic cell in the culture.
In another experiment, lysates from cells obtained above were analyzed by Western Blot for cleavage of PARP, Caspase 3 and Caspase 8.

In the case of “polyinosinic-polycytidylic acid [Poly IC]”, the “cells with low DNA content (subG0/G1 cells)” value in assay [1] turned out to be 38.6%. For the same substance, the “percentage of cells with subdiploid DNA content” value in assay [2] (48 h with 5 μg/ml Poly IC (3% before treatment)) is 23%. Moreover, in assay [2] (48 h with 5 μg/ml Poly IC (27% before treatment)), the “percentage of cells that incorporated BrdU” value was determined as 9%. In addition, the “cell recovery, percent of control, on average” value in assay [3] is 67.5%. Also, the “percentage of apoptotic cells” value with SKBr3 cells (SKBr3, 0.5 μg/ml Poly IC 48 h, no IFN pre-treatment) was 15%; with SKBr3 cells (SKBr3, 0.5 μg/ml Poly IC 48 h, pre-treated IFN-α/β 10 U/ml) it was 45%; in the assay on SKBr3 cells (SKBr3, 0.5 μg/ml Poly IC 48 h, pre-treated IFN-α/β 100 U/ml), 55%; with SKBr3 cells (SKBr3, 5 μg/ml Poly IC 48 h, no IFN pre-treatment) it was 20%; in the assay with SKBr3 cells (SKBr3, 5 μg/ml Poly IC 48 h, pre-treated IFN-α/β 10 U/ml), 55%; with SKBr3 cells (SKBr3, 5 μg/ml Poly IC 48 h, pre-treated IFN-α/β 100 U/ml) it was 60%. For the same substance, the “percentage of apoptotic cells” value came to 20% in the assay with SKBr3 cells (SKBr3, 50 μg/ml Poly IC 48 h, no IFN pre-treatment); 55% in the assay on SKBr3 cells (SKBr3, 50 μg/ml Poly IC 48 h, pre-treated IFN-α/β 10 U/ml); 60% in the assay on SKBr3 cells (SKBr3, 50 μg/ml Poly IC 48 h, pre-treated IFN-α/β 100 U/ml); 22% with SKBr3 cells (SKBr3 MOCK group, 24 h, 50 μg/ml Poly IC, untreated 10%); 22% in the assay with SKBr3 cells (SKBr3 PKR siRNA group, 24 h, 50 μg/ml Poly IC, untreated 12%); 13% in the assay on SKBr3 cells (SKBr3 TLR3 siRNA group, 24 h, 50 μg/ml Poly IC, untreated 8%). Also, the “Poly IC concentration at which cells become sensitive to apoptosis, IFN pre-treated versus non-pretreated cells” value in the assay on SKBr3 cells (SKBr3, type I IFN pre-treatment) is “one hundred fold lower”. The “percentage of SKBr3 cells induced to apoptosis by Poly IC” value in the assay with SKBr3 cells (after type I IFN pre-treatment) is recorded as 66%; in the assay on SKBr3 cells (without type I IFN pre-treatment), 22%. For the same substance, the “cleavage of PARP” value in the assay on PARP is recorded as “occurred”.

For the origin of these results see patent US20060147456A1, “Induction of apoptosis in toll-like receptor expressing tumor cells” (priority 2004, published 2006).
